Measurements as given in patent publication US11912693B2, “Compounds for modulating S1P1 activity and methods of using the same” (TREVENA, INC., priority 2017, dated 2024).

Key:
[1] = target: human sphingosine-1-phosphate receptor 1 (S1P1) (Homo sapiens (Human), UniProt P21453); assay: β-Arrestin2 recruitment assay (PathHunter), S1P1 CHO-K1 cells; type: cell-based; conditions: for Emax: CHO-K1, read-out: hS1P1 B-arrestin2 SPAN; for hS1P1 B-arrestin2 pEC50: β-arrestin2 recruitment, S1P1 CHO-K1 cells
Method in brief: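 Enzyme-fragment complementation read-out: agonist-driven β-arrestin2 binding to ProLink-tagged human S1P1 in stable CHO-K1 cells restores β-galactosidase, measured 1 h at room temperature after a 60 min 37° C. compound incubation. Potency as pEC50, efficacy relative to fingolimod (SPAN).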

[2] = target: human sphingosine-1-phosphate receptor 2 (S1P2) (Homo sapiens (Human), UniProt O95136); assay: Inositol monophosphate production (IP-one TB kit), S1P2 CHO-K1 cells; type: cell-based; conditions: for Emax: CHO-K1, efficacy normalized to CYM5520, read-out: hS1P2 IP-one SPAN; for hS1P2 IP-one pEC50: inositol monophosphate accumulation
Method in brief: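 Stable CHO-K1 cells expressing EA-β-arrestin2 and Prolink-tagged human S1P2, plated overnight, then exposed to compounds in IP-one stimulation buffer for 60 min at 37 °C. IP1 read by TR-FRET after 1 h at RT. Efficacy (SPAN) normalized to CYM5520; potency as pEC50.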

[3] = target: human sphingosine-1-phosphate receptor 3 (S1P3) (Homo sapiens (Human), UniProt Q99500); assay: Inhibition of cAMP production (HTRF), S1P3 CHO-K1 cells; type: cell-based; conditions: for Emax: CHO-K1, efficacy normalized to fingolimod, read-out: hS1P3 cAMP SPAN; for hS1P3 cAMP pEC50: inhibition of cAMP production
[4] = system: peripheral blood lymphocytes; assay: Peripheral blood lymphocytes (lymphopenia) in c57bl/6 mice, acute and chronic studies; type: in vivo; conditions: 6 mg/kg sc, 7 days; for Lymphopenia: Effect and Doses, mg/kg, sc: peripheral blood lymphocytes vs vehicle
Procedure: Compounds were tested for changes in peripheral blood lymphocytes in c57bl/6 mice. In acute studies, animals (n=5/group) were dosed subcutaneously with test compound at a dose of 3 mg/kg. Animals were sacrificed at specific time points and 500 μl of whole blood was collected in EDTA (K2) Eppendorf tubes. Blood was stored on ice and shipped immediately overnight delivery to Charles River Laboratories for analysis. CRL ran samples through their WBC/differential panel on an Advia 120 instrument. We received peripheral lymphocyte counts (10^3 cells/μl) for each blood sample. Treatment group means were compared to a vehicle treatment group for statistical significance. In chronic studies, animals (n=6-8/group) were dosed subcutaneously with test compound either in a dose response paradigm (highest dose of 3 mg/kg) or in a screening paradigm at 6 mg/kg for seven days. On the seventh day, animals were sacrificed 45 minutes after the final dose. Whole blood was collected and analyzed as described for acute studies. […]

[5] = target: sphingosine-1-phosphate receptor 5 (S1P5) (Homo sapiens (Human), UniProt Q9H228); assay: Inhibition of cAMP production (HTRF), S1P5 CHO-K1 cells; type: cell-based; conditions: for Emax: CHO-K1, efficacy normalized to fingolimod, read-out: hS1P5 cAMP SPAN; for hS1P5 cAMP pEC50: inhibition of cAMP production
[6] = efficacy (SPAN) normalized to fingolimod

Chain of sphingosine-1-phosphate receptor 5 (S1P5) (Q9H228 whole entry): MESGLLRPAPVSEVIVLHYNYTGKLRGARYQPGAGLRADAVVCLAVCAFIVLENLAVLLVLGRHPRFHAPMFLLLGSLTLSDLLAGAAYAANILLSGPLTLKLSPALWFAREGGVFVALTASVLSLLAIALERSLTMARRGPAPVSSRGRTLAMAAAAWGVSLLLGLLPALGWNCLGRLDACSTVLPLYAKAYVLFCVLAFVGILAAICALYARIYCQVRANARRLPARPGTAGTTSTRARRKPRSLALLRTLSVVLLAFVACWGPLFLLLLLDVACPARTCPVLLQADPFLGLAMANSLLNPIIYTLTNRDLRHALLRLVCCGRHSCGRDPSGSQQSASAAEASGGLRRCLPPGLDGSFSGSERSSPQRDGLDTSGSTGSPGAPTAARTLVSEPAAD
Chain of human sphingosine-1-phosphate receptor 1 (S1P1) (P21453 whole entry, looked up, the tested form may be a part): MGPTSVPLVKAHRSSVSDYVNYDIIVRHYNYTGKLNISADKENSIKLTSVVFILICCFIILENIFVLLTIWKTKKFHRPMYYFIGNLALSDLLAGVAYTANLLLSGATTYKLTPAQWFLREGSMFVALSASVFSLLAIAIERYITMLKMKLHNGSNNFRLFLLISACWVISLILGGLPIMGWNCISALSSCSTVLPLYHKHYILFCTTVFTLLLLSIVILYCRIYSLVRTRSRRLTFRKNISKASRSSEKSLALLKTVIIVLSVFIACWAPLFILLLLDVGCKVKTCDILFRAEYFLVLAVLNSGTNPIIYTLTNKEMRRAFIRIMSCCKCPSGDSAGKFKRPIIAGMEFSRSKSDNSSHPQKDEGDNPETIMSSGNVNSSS
Chain of human sphingosine-1-phosphate receptor 1 (S1P1) (P32121 whole entry partner, looked up, the tested form may be a part): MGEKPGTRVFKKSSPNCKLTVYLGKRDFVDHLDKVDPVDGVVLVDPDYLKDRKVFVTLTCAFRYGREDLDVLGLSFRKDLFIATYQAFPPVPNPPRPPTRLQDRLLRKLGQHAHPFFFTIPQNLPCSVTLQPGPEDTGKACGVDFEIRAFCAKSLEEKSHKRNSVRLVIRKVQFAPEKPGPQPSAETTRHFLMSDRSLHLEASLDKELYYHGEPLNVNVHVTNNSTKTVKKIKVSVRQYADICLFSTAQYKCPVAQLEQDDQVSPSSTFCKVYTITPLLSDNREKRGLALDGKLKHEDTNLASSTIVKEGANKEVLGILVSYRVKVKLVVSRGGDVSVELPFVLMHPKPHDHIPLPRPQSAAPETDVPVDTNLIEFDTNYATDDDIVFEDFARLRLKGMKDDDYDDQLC
Chain of human sphingosine-1-phosphate receptor 3 (S1P3) (Q99500 whole entry): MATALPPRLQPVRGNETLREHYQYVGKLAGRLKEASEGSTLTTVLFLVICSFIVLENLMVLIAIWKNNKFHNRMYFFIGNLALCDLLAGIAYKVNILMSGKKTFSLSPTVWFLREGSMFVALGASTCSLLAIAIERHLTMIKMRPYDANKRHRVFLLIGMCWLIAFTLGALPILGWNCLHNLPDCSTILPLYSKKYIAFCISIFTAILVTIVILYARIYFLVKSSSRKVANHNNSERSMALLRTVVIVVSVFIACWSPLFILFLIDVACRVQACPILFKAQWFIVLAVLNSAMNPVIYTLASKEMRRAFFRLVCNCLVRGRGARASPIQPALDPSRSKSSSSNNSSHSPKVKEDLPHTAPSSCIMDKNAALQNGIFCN
Chain of human sphingosine-1-phosphate receptor 2 (S1P2) (O95136 whole entry): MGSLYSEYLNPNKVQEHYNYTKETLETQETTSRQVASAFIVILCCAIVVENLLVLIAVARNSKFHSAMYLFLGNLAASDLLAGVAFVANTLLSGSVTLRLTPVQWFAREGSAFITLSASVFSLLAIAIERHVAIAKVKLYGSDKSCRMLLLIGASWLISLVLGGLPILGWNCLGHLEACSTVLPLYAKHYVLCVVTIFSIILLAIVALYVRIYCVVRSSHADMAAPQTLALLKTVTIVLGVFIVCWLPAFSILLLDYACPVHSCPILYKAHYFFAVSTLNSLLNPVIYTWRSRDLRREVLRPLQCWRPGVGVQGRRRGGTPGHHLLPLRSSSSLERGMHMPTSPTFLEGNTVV

Structure (SMILES)	Emax [1, 6]	hS1P1 B-arrestin2 pEC50 [1]	Emax [2]	hS1P2 IP-one pEC50 [2]	Emax [3]	hS1P3 cAMP pEC50 [3]	Lymphopenia: Effect and Doses, mg/kg, sc [4]	Emax [5]	hS1P5 cAMP pEC50 [5]	hS1P1 B-arrestin2 SPAN [1, 6]	Lymphopenia: Effect and Doses, mg/kg, sc (change in peripheral blood lymphocytes) ([4]; significance vs vehicle given)
CC(C)n1nnc2cc(-c3nc(-c4ccncc4C(F)(F)F)no3)ccc21 [Compound 455, 1-(propan-2-yl)-5-{3-[3-(trifluoromethyl)pyridin-4-yl]-1,2,4-oxadiazol-5-yl}-1H-1,2,3-benzotriazole]	> 75%	>5	< 50%	<5.0	< 50%	<5.0	no change: 6 mg/kg, 7 days				
CCC1(CC)CC(=O)c2cc(-c3nc(-c4ccncc4OC)no3)ccc2O1 [Compound 212, 2,2-diethyl-6-(3-(3-methoxypyridin-4-yl)-1,2,4-oxadiazol-5-yl)chroman-4-one]	< 75%	>5	< 50%	<5.0	< 50%	<5.0		< 50%	<5.0		
CCC1(CC)CC(=O)c2cc(-c3nc(-c4cccnc4OC)no3)ccc2O1 [Compound 147, 2,2-diethyl-6-(3-(2-methoxypyridin-3-yl)-1,2,4-oxadiazol-5-yl)chroman-4-one]	> 75%	>5	< 50%	<5.0	< 50%	<5.0	no change: 6 mg/kg, 7 days	< 50%	>5.0		
Cc1ccccc1-c1nc(-c2ccc3c(c2)nnn3C(C)C)no1 [Compound 99, 3-(1-isopropyl-1H-benzo[d][1,2,3]triazol-5-yl)-5-(o-tolyl)-1,2,4-oxadiazole]		>5		<5.0		<5.0	no change: 6 mg/kg, 7 days		<5.0		
COc1ccccc1-c1nc(-c2ccc3c(c2)nnn3C(C)C)no1 [Compound 287, 3-(1-isopropyl-1H-benzo[d][1,2,3]triazol-5-yl)-5-(2-methoxyphenyl)-1,2,4-oxadiazole]		>5		<5.0		<5.0	no change: 6 mg/kg, 7 days		<5.0		
Cc1ccccc1-c1noc(-c2ccc3c(c2)nnn3C(C)C)n1 [Compound 293, 5-[3-(2-methylphenyl)-1,2,4-oxadiazol-5-yl]-1-(propan-2-yl)-1H-1,2,3-benzotriazole]	> 75%	>5	< 50%	<5.0	< 50%	<5.0	no change: 6 mg/kg, 7 days	> 50%	<5.0		
COc1ccc(-c2noc(-c3ccc4c(c3)nnn4CC(C)(C)O)n2)c(C)c1 [Compound 26, 1-{5-[3-(4-methoxy-2-methylphenyl)-1,2,4-oxadiazol-5-yl]-1H-1,2,3-benzotriazol-1-yl}-2-methylpropan-2-ol]		>5		<5.0		<5.0			<5.0	<75	
CCC1(CC)CC(=O)c2cc(-c3nc(-c4cn[nH]c4)no3)ccc2O1 [Compound 469, 6-(3-(1H-pyrazol-4-yl)-1,2,4-oxadiazol-5-yl)-2,2-diethylchroman-4-one]	> 75%	>5									−28% not stat sig: 6 mg/kg, 7 days
CC(C)n1nnc2cc(-c3nc(-c4cccc5c4OCCC5)no3)ccc21 [Compound 304, 3-chroman-8-yl-5-(1-isopropylbenzotriazol-5-yl)-1,2,4-oxadiazole]		>5		<5.0		>5.0	no change: 6 mg/kg, 7 days		<5.0		
CCC1(CC)CC(=O)c2cc(-c3nc(-c4cccnc4)no3)ccc2O1 [Compound 103, 2,2-diethyl-6-[3-(pyridin-3-yl)-1,2,4-oxadiazol-5-yl]-3,4-dihydro-2H-1-benzopyran-4-one]	> 75%	>5	< 50%	<5.0	< 50%	<5.0	no change: 6 mg/kg, 7 days	< 50%	<5.0		
